Values joined by “and” are separate entries in the source; they are usually repeats but may differ in a detail not shown here. Identical values can stand only once. Like-named read-outs stand apart in the source and are kept apart here.
Experiments:
CD8-KO mice = tested on: CD8-KO mice
Excerpt: (§1) Three to five week old C57BL/10-Cd4^tml(CD4-KO;H2^b, n=5), C57BL/6J-CD4^tm/mak (CD4-KO; H2^b, n=15) CD57BL/6JCD8α^tm/mak (CD8-KO; H2^b, n=16), C57BL/6J (B6; H2^b, n=6), C57BL/6-6d4^tm/mak (CD4-KO) and C57BL/6-Cd8^tm/mak (CD8-KO)recipient mice, as well as three to five week old B10.BR/SgSnJ (B10.BR, H2^k) donor mice were purchased from the Jackson Laboratory (Bar Harbor, Me.). Knock-out mice were housed in a special pathogen-free barrier facility, while donor mice were housed in a conventional barrier animal facility. Mice were cared for according to National Institute of Health animal care guidelines.
(§2) Bone marrow was prepared as previously described (Ildstad and Sachs, Nature, 307:168 (1984)). Briefly, B10.BR donor mice were euthanized and tibias and femurs harvested. Bone marrow was expelled from the bones with Media 199 (Gibco, Grand Island, N.Y.) containing 10 μg/ml Gentamicin (Gibco) (MEM). The cells were filtered through sterile nylon mesh with 100 μm pores, spun for minutes at 200×g and 4° C., and resuspended in MEM. A cell count was performed and the cells were diluted to a final concentration of 15×10^6 bone marrow cells per 1 ml of MEM.
(§3) CD4-KO and CD8-KO mice were treated with TBI from a cesium source (Gamma-cell 40, Nordion, Ontario, Canada). Doses from 0 to 300 cGy were administered according to the experimental groups. Animals were transplanted with 1 ml MEM containing 15×10^6 B10.BR bone marrow cells via lateral tail vein injection within 4 hours after irradiation.
(§4) Peripheral blood was obtained from the mice by tail-vein bleeding. The blood was collected in heparinized Eppendorf tubes 28 days, 3 months and 6 months after BMT. Fifty μl of whole blood were incubated for 7 minutes with 2 ml of lysing buffer (8.29 g of NH4Cl, 1.0 g of KHCO3 and 0.0372 g Na2EDTA in 1 liter H2O to lyse red blood cells. The cells were washed with 2 ml FACS medium (0.36 g NaHCO3, 1.0 g NaN3 and 1.0 g bovine serum albumin in 1 liter Hanks Balanced Salt Solution and spun at 200×g for 10 minutes at 4° C. After the supernatant was carefully decanted, cells were mixed with 10 μl diluted monoclonal antibodies (mAb; details discussed infra) and incubated for 30 minutes at 4° C. in the dark. The appropriate dilution for the use of the mAb was determined in titration experiments prior to use. After the incubation, the cells were washed twice with 2 ml of FACS medium and spun at 200×g for minutes at 4° C. Finally, the cells were fixed with 1% paraformaldehyde in PBS. The analyses were carried out on a FACS-Calibur (Becton Dickinson, Mountain View, Calif.) with CellQuest software (Becton Dickinson).
(§5) PBL were stained with mAb specific for MHC Class I antigens of donor (FITC conjugated anti-H2K^k, 36-7-5, mouse IgG1) and recipient (PE-conjugated anti-H2K^b, AF6-88.5, mouse IgG2a) origin to determine the percentage of donor chimerism. Multi-lineage engraftment was assessed by staining with biotinylated anti-H2K^k (36-7-5, mouse IgG1), FITC-conjugated anti-H2K^b (AF6-88.5, mouse IgG2a) and PE-conjugated lineage markers 3 months after BMT. The biotinylated antibody was recovered with Streptavidin-Allophycocyanin (SA-APC). The following antibodies were used as lineage markers: anti-GR-1 (RB6-8C5, rat IgG2^b); anti-MAC-1 (M1/70, rat IgG2^b); anti-CD4 (RM4-5, rat IgG2a); anti-CD8α (53-6.7, rat IgG2a); anti-B220 (RA3-6B2, rat IgG2a); anti-NK1.1 (PK136, mouse IgG2a); anti-TCR-β chain (H57-597, hamster IgG); and anti-γδ-TCR (GL3, hamster IgG). Non-specific background staining was controlled for by using isotype control antibodies directed against irrelevant antigens and conjugated with the same color as the experimental antibody (i.e., anti-TNP mouse IgG2a conjugated with PE served as isotype control for PE-conjugated anti-H2K^b mouse IgG2a). All mAb were obtained from PharMingen (San Diego, Calif.). SA-APC was purchased from Becton Dickinson (Mountain View, Calif.).

CD4-KO mice = conditions: 300 cGy TBI + 200 mg/kg CyP
Excerpt: as §1, §2, §3, §4, §5

SMILES: O=P1(N(CCCl)CCCl)NCCCO1 (centres unmarked) [CyP, cyclophosphamide]
- animals with donor chimerism (CD8-KO mice; 200 mg/kg CyP alone without irradiation, 28 days after BMT): 6 of 6 and Six of 6 and 6 out of 6
- % animals that engrafted (CD8-KO mice; C57BL/6-Cd8a tm/mak, 300 cGy TBI + 200 mg/kg CyP day 2): 100%
- level of donor chimerism (CD8-KO mice; CyP and 100 cGy TBI (n=6)): 11±0.4%
- level of donor chimerism (CD8-KO mice; CyP and 200 cGy TBI (n=6)): 32.7±1.5%
- average level of donor chimerism (CD8-KO mice; CyP and 300 cGy TBI (n=16)): 45.7%±2.5
- CD4-KO mice that engrafted (CD4-KO mice; 15 C57BL/6-Cd4 tm/mak mice): None
- % animals that engrafted (CD4-KO mice; C57BL/6-Cd4 tm/mak (n=15)): 0%
- % animals that engrafted (CD4-KO mice; C57BL/10-Cd4 tml (n=5)): 0%
